# Experimental data published in ChEMBL document CHEMBL1127350, “The squalestatins: novel inhibitors of squalene synthase. Enzyme inhibitory activities and in vivo evaluation of C1-modified analogues” (J Med Chem, 1994).
# “And” between values parts separate entries of the source, which are not always exact repeats. Identical values can stand only once.
# Experiments:
# Squalene synthase = target: T1, Squalene synthase (Rattus norvegicus, UniProt Q02769); assay: Inhibition of juvenile male rat liver microsomal squalene synthase
# T1 sequence (Q02769 whole entry): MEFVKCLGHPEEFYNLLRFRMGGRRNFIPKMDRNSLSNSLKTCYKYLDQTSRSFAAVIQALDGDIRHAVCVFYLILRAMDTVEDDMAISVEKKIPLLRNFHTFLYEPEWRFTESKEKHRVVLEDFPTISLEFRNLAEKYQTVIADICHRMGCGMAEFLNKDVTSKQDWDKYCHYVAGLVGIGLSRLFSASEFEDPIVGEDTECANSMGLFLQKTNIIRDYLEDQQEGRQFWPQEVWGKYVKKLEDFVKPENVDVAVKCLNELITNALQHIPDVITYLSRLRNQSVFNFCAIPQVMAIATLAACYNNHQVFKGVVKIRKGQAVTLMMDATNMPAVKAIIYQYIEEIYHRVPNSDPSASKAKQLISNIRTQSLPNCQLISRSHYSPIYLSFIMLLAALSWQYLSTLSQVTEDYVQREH
# Aspergillus niger = assay: Compound was tested for an antifungal whole cell assay to obtain minimum inhibitory concentration against Aspergillus niger 48238; format: functional
# Cryptococcus neoformans = assay: Compound was tested for an antifungal whole cell assay to obtain minimum inhibitory concentration against Cryptococcus neoformans 2867E; format: functional
# Candida albicans = assay: Compound was tested for an antifungal whole cell assay to obtain minimum inhibitory concentration against Candida albicans C316; format: functional
# [1] = Compound was tested on serum cholesterol levels in marmosets after 7 days at 1(mg/kg/day) intravenous administration in 6 animals; format: functional, Callitrichinae
# [2] = (§1) Compound was tested on serum cholesterol levels in marmosets after 7 days at intravenous 0.11 (mg/kg) dose in 6 animals; format: functional, Callitrichinae
# [3] = Compound was tested on serum cholesterol levels in marmosets after 7 days at 1(mg/kg/day) intravenous administration in 8 animals; format: functional, Callitrichinae
# [4] = Compound was tested on serum cholesterol levels in marmosets after 3 days at intravenous 0.33 (mg/kg) dose in 6 animals; format: functional, Callitrichinae
# [5] = as §1; format: functional, Callitrichinae; remark: listed apart in the source
# Rattus norvegicus = assay: Tested for inhibition of cholesterol biosynthesis by intravenous administration to rats; format: functional
# [6] = Compound was tested on serum cholesterol levels in marmosets after 2 days at intravenous 1 (mg/kg) dose in 6 animals; format: functional, Callitrichinae
# [7] = Aspergillus niger, read-out: MIC
# [8] = Cryptococcus neoformans, read-out: MIC
# [9] = Candida albicans, read-out: MIC
IC50 (Squalene synthase) [µM],MIC (Aspergillus niger; [7]) [mg/L],MIC (Cryptococcus neoformans; [8]) [mg/L],MIC (Candida albicans; [9]) [mg/L],Compound,other results
0.415,125,125,125,CC(CC[C@]12O[C@H](C(=O)O)[C@@](O)(C(=O)O)[C@](C(=O)O)(O1)[C@H](O)[C@H]2O)C[C@@H](C)Cc1ccccc1 (stereo not given in full),
,> 125,> 125,> 125,C=C(CC[C@]12O[C@H](C(=O)O)[C@@](O)(C(=O)O)[C@](C(=O)O)(O1)[C@H](O)[C@H]2O)[C@H](OC(C)=O)[C@@H](C)Cc1ccccc1,Cholesterol reduction [1]: 56%
,125,125,125,CC(=O)O[C@@H](C(C)CC[C@]12O[C@H](C(=O)O)[C@@](O)(C(=O)O)[C@](C(=O)O)(O1)[C@H](O)[C@H]2O)[C@@H](C)Cc1ccccc1 (stereo not given in full),
0.252,62,62,62,C=C(CC[C@]12O[C@H](C(=O)O)[C@@](O)(C(=O)O)[C@](C(=O)O)(O1)[C@H](O)[C@H]2O)[C@H](O)[C@@H](C)Cc1ccccc1,
0.2,,,,C/C(=C\[C@@H](C)Cc1ccccc1)CC[C@]12O[C@H](C(=O)O)[C@@](O)(C(=O)O)[C@](C(=O)O)(O1)[C@H](O)[C@H]2O,

# Further lines, the molecule ahead of its results:
Compound,IC50 (Squalene synthase) [µM],MIC (Aspergillus niger; [7]) [mg/L],MIC (Cryptococcus neoformans; [8]) [mg/L],MIC (Candida albicans; [9]) [mg/L],other results
CC[C@H](C)C[C@H](C)CCC(=O)O[C@@H]1[C@@H](O)[C@@]2(CCC(C)C[C@@H](C)Cc3ccccc3)O[C@H](C(=O)O)[C@@](O)(C(=O)O)[C@]1(C(=O)O)O2 (stereo not given in full),,16,1,31,
CC[C@H](C)C[C@H](C)/C=C/C(=O)O[C@@H]1[C@@H](O)[C@@]2(CC/C(C)=C/[C@@H](C)Cc3ccccc3)O[C@H](C(=O)O)[C@@](O)(C(=O)O)[C@]1(C(=O)O)O2,0.032,16,4,31,
C=C(CC[C@]12O[C@H](C(=O)O)[C@@](O)(C(=O)O)[C@](C(=O)O)(O1)[C@H](OC(=O)CC[C@@H](C)C[C@@H](C)CC)[C@H]2O)[C@H](OC(C)=O)[C@@H](C)Cc1ccccc1,0.013,1,0.1,8,Cholesterol reduction [1]: 72%
C=C(CC[C@]12O[C@H](C(=O)O)[C@@](O)(C(=O)O)[C@](C(=O)O)(O1)[C@H](OC(=O)/C=C/[C@@H](C)C[C@@H](C)CC)[C@H]2O)[C@H](O)[C@@H](C)Cc1ccccc1,,16,1,125,Cholesterol reduction [1]: 59%
CC[C@H](C)C[C@H](C)CCC(=O)O[C@@H]1[C@@H](O)[C@@]2(C/C=C(\C)[C@H](OC(C)=O)[C@@H](C)Cc3ccccc3)O[C@H](C(=O)O)[C@@](O)(C(=O)O)[C@]1(C(=O)O)O2,0.022,31,8,125,
CC[C@H](C)C[C@H](C)CCC(=O)O[C@@H]1[C@@H](O)[C@@]2(CCC(C)[C@H](O)[C@@H](C)Cc3ccccc3)O[C@H](C(=O)O)[C@@](O)(C(=O)O)[C@]1(C(=O)O)O2 (stereo not given in full),,31,8,125,
C=C(CC[C@]12O[C@H](C(=O)O)[C@@](O)(C(=O)O)[C@](C(=O)O)(O1)[C@H](OC(=O)/C=C/[C@@H](C)C[C@@H](C)CC)[C@H]2O)[C@H](OC(C)=O)[C@@H](C)Cc1ccccc1,,16,0.5,8,Cholesterol reduction [2]: 37% and 41%; Cholesterol reduction [3]: 86%; Cholesterol reduction [4]: 53% and 63% and 62%; Cholesterol reduction [5]: 39%; ED50 (Rattus norvegicus): 0.1 mg/kg; Cholesterol reduction [6]: 47% and 53% and 60%
"CC[C@H](C)C[C@H](C)/C=C/C(=O)O[C@@H]1[C@@H](O)[C@@]2(C/C=C(\C)CC(C)Cc3ccccc3)O[C@H](C(=O)O)[C@@](O)(C(=O)O)[C@]1(C(=O)O)O2 (single isomer, unassigned)",0.065,31,2,31,
CC[C@H](C)C[C@H](C)CCC(=O)O[C@@H]1[C@@H](O)[C@@]2(CCC(C)[C@H](OC(C)=O)[C@@H](C)Cc3ccccc3)O[C@H](C(=O)O)[C@@](O)(C(=O)O)[C@]1(C(=O)O)O2 (stereo in doubt; 2d),0.003,,,,MIC (Aspergillus niger): 8 mg/L; MIC (Cryptococcus neoformans): 0.5 mg/L; MIC (Candida albicans): 16 mg/L
CC[C@H](C)C[C@H](C)CCC(=O)O[C@@H]1[C@@H](O)[C@@]2(CCC(C)[C@H](OC(C)=O)[C@@H](C)Cc3ccccc3)O[C@H](C(=O)O)[C@@](O)(C(=O)O)[C@]1(C(=O)O)O2 (stereo in doubt; 2f),0.165,,,,MIC (Aspergillus niger): 125 mg/L; MIC (Cryptococcus neoformans): 4 mg/L; MIC (Candida albicans): 125 mg/L
